Assay results published in patent US9513294B2, “Megastokes amino-triazolyl-BODIPY compounds and applications to live neuron staining and human serum albumin FA1 drug site probing” (National University of Singapore, priority 2012, dated 2016).
One block for each molecule: values may come before it.

Assays:
[1] = Absorbance and fluorescence emission spectra (SpectraMax M2); format: physicochemical; details: for λmax Abs. (nm) / λmax Em. (nm): MKAC compound library; for λmax Abs. (nm) / λmax Absorp. (nm): absorbance maximum; for λmax Em. (nm) / λmax Emission (nm): fluorescence emission maximum; for λmax Absorp. (nm) / λmax Emission (nm): MKCA compound library
Outline: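 Absorbance and emission maxima measured on a SpectraMax M2 spectrophotometer, which also gave quantum yield data; analysis in GraphPrism.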

[2] = Quantum yield measurements versus Acridine Yellow in EtOH; format: physicochemical; details: for φ (%): quantum yield; for φ (quantum yield): excitation 460 nm
Outline: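 Fluorescence quantum yield is relative to Acridine Yellow in EtOH (Φ 0.47), with excitation at 460 nm. Integrated emission at 510–700 nm was corrected for absorbance at the excitation wavelength and for solvent refractive index.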

λmax Abs. (nm) [1]: 466 nm | λmax Em. (nm) [1]: 562 nm | φ (%) ([2]; MKAC compound library): 20.07%
Compound: CCCc1cn(-c2ccc3n2[B-](F)(F)[N+]2=C(NCc4ccccc4OCC)C=CC2=C3c2ccc(NC(C)=O)cc2)nn1 [MKAC103-48]

λmax Abs. (nm) [1]: 464 nm | λmax Em. (nm) [1]: 579 nm | φ (%) ([2]; MKAC compound library): 1.67%
Compound: CC(=O)Nc1ccc(C2=C3C=CC(N(C)Cc4ccccc4)=[N+]3[B-](F)(F)n3c2ccc3-n2cc(CO)nn2)cc1 [MKAC195-70]

λmax Abs. (nm) [1]: 463 nm | λmax Em. (nm) [1]: 574 nm | φ (%) ([2]; MKAC compound library): 1.00%
Compound: CC(=O)Nc1ccc(C2=C3C=CC(N4CCCC4)=[N+]3[B-](F)(F)n3c2ccc3-n2cc(C3CCCC3)nn2)cc1 [MKAC215-5]

λmax Absorp. ([1]; BDCCA library, Table 4): 464 nm | λmax Emission ([1]; BDCCA library, Table 4): 577 nm | φ (quantum yield) ([2]; BDCCA library, Table 4): 1.1%
Compound: O=C(CCl)Nc1ccc(C2=C3C=CC(N4CCCCC4)=[N+]3[B-](F)(F)n3c2ccc3-n2cc(-c3ccccc3)nn2)cc1 [BDCCA-9]

λmax Absorp. ([1]; MK library, Table 5): 479 nm | λmax Emission ([1]; MK library, Table 5): 596 nm | φ (quantum yield) ([2]; MK library, Table 5): 0.14%
Compound: Nc1ccc(C2=C3C=CC(N4CCc5ccccc5C4)=[N+]3[B-](F)(F)n3c2ccc3-n2cc(CO)nn2)cc1 [MK66-70]

λmax Absorp. ([1]; BDC library, Table 2): 473 nm | λmax Emission ([1]; BDC library, Table 2): 574 nm | φ (quantum yield) ([2]; BDC library, Table 2): 0.16%
Compound: CCCCCCc1cn(-c2ccc3n2[B-](F)(F)[N+]2=C(N4CCCCC4)C=CC2=C3c2ccc(N)cc2)nn1 [BDC-47]

λmax Absorp. ([1]; MK library, Table 5): 476 nm | λmax Emission ([1]; MK library, Table 5): 573 nm | φ (quantum yield) ([2]; MK library, Table 5): 0.10%
Compound: CCCC(C)c1cn(-c2ccc3n2[B-](F)(F)[N+]2=C(N4CC(C)OC(C)C4)C=CC2=C3c2ccc(N)cc2)nn1 (stereo not drawn) [MK20-3]

λmax Absorp. ([1]; MK library, Table 5): 474 nm | λmax Emission ([1]; MK library, Table 5): 563 nm | φ (quantum yield) ([2]; MK library, Table 5): 2.28%
Compound: CCCCCC(O)c1cn(-c2ccc3n2[B-](F)(F)[N+]2=C(NCc4ccccc4OCC)C=CC2=C3c2ccc(N)cc2)nn1 (stereo not drawn) [MK103-69]

λmax Absorp. ([1]; BDCCA library, Table 4): 464 nm | λmax Emission ([1]; BDCCA library, Table 4): 587 nm | φ (quantum yield) ([2]; BDCCA library, Table 4): 1.3%
Compound: CC(C)(C)c1ccc(-c2cn(-c3ccc4n3[B-](F)(F)[N+]3=C(N5CCCCC5)C=CC3=C4c3ccc(NC(=O)CCl)cc3)nn2)cc1 [BDCCA-11]

λmax Absorp. ([1]; BDCCA library, Table 4): 467 nm | λmax Emission ([1]; BDCCA library, Table 4): 627 nm | φ (quantum yield) ([2]; BDCCA library, Table 4): 0.1%
Compound: CN(C)c1ccc(-c2cn(-c3ccc4n3[B-](F)(F)[N+]3=C(N5CCCCC5)C=CC3=C4c3ccc(NC(=O)CCl)cc3)nn2)cc1 [BDCCA-13]

λmax Absorp. ([1]; BDC library, Table 2): 476 nm | λmax Emission ([1]; BDC library, Table 2): 582 nm | φ (quantum yield) ([2]; BDC library, Table 2): 0.10%
Compound: CCCc1cn(-c2ccc3n2[B-](F)(F)[N+]2=C(N4CCCCC4)C=CC2=C3c2ccc(N)cc2)nn1 [BDC-48]

λmax Absorp. (nm) [1]: 466 nm | λmax Emission (nm) [1]: 582 nm | φ (%) ([2]; MKCA compound library): 4.20%
Compound: CCCCCC(O)c1cn(-c2ccc3n2[B-](F)(F)[N+]2=C(N(C)Cc4ccccc4)C=CC2=C3c2ccc(NC(=O)CCl)cc2)nn1 (stereo not drawn) [MKCA195-69]

λmax Absorp. ([1]; MK library, Table 5): 480 nm | λmax Emission ([1]; MK library, Table 5): 583 nm | φ (quantum yield) ([2]; MK library, Table 5): 0.14%
Compound: CCCCCC(O)c1cn(-c2ccc3n2[B-](F)(F)[N+]2=C(N4CCc5ccccc5C4)C=CC2=C3c2ccc(N)cc2)nn1 (stereo not drawn) [MK66-69]

λmax Absorp. ([1]; BDCCA library, Table 4): 467 nm | λmax Emission ([1]; BDCCA library, Table 4): 577 nm | φ (quantum yield) ([2]; BDCCA library, Table 4): 1.1%
Compound: O=C(CCl)Nc1ccc(C2=C3C=CC(N4CCCCC4)=[N+]3[B-](F)(F)n3c2ccc3-n2cc(C3CC3)nn2)cc1 [BDCCA-4]

λmax Absorp. ([1]; BDC library, Table 2): 475 nm | λmax Emission ([1]; BDC library, Table 2): 577 nm | φ (quantum yield) ([2]; BDC library, Table 2): 0.13%
Compound: CCCCCCCc1cn(-c2ccc3n2[B-](F)(F)[N+]2=C(N4CCCCC4)C=CC2=C3c2ccc(N)cc2)nn1 [BDC-50]

λmax Absorp. (nm) [1]: 470 nm | λmax Emission (nm) [1]: 587 nm | φ (%) ([2]; MKCA compound library): 3.11%
Compound: O=C(CCl)Nc1ccc(C2=C3C=CC(N4CCc5ccccc5C4)=[N+]3[B-](F)(F)n3c2ccc3-n2cc(C3CCCC3)nn2)cc1 [MKCA66-5]

λmax Absorp. (nm) [1]: 465 nm | λmax Emission (nm) [1]: 581 nm | φ (%) ([2]; MKCA compound library): 6.17%
Compound: CN(Cc1ccccc1)C1=[N+]2C(=C(c3ccc(NC(=O)CCl)cc3)c3ccc(-n4cc(CC5CCCCC5)nn4)n3[B-]2(F)F)C=C1 [MKCA195-8]

λmax Absorp. ([1]; BDCCA library, Table 4): 466 nm | λmax Emission ([1]; BDCCA library, Table 4): 578 nm | φ (quantum yield) ([2]; BDCCA library, Table 4): 1.0%
Compound: O=C(CCl)Nc1ccc(C2=C3C=CC(N4CCCCC4)=[N+]3[B-](F)(F)n3c2ccc3-n2cc(CCc3ccccc3)nn2)cc1 [BDCCA-19]

λmax Absorp. (nm) [1]: 467 nm | λmax Emission (nm) [1]: 583 nm | φ (%) ([2]; MKCA compound library): 5.32%
Compound: CC1CN(C2=[N+]3C(=C(c4ccc(NC(=O)CCl)cc4)c4ccc(-n5cc(CCc6ccccc6)nn5)n4[B-]3(F)F)C=C2)CC(C)O1 (stereo not drawn) [MKCA20-19]

λmax Absorp. ([1]; MK library, Table 5): 477 nm | λmax Emission ([1]; MK library, Table 5): 582 nm | φ (quantum yield) ([2]; MK library, Table 5): 0.27%
Compound: CN(Cc1ccccc1)C1=[N+]2C(=C(c3ccc(N)cc3)c3ccc(-n4cc(CCc5ccccc5)nn4)n3[B-]2(F)F)C=C1 [MK195-19]

λmax Absorp. ([1]; MK library, Table 5): 470 nm | λmax Emission ([1]; MK library, Table 5): 574 nm | φ (quantum yield) ([2]; MK library, Table 5): 0.56%
Compound: Nc1ccc(C2=C3C=CC(N4CCCC4)=[N+]3[B-](F)(F)n3c2ccc3-n2cc(CC3CCCCC3)nn2)cc1 [MK215-8]
